{"source": "patent US12594307B2", "about": "“Compositions and methods of using inducible signaling for tunable dynamics in microbial communities” (priority 2019, dated 2026)", "key": {"[1]": {"test_system": "iQS strain", "assay": "iQS strain fluorescence response to pCA, microwell plate reader", "type": "cell-based, Escherichia Coli", "conditions": "FIG. 1D", "method": "To design an exemplary iQS system, the two-step pathway which converts pCA into p-coumaroyl-HSL (pC-HSL) was genetically reconstructed through the production of the intermediate molecule p-coumaroyl-CoA (FIG. 1A). The first conversion is catalyzed by the p-coumaric acid-CoA ligase encoded by the 4CL2nt gene from the plant Nicotiana tabacum while the second step is catalyzed by the RpaI synthase. Additionally, superfolder green fluorescent protein (sfGFP) was added to be able to monitor the inducible dynamics. […] Escherichia Coli was chosen as the host chassis for the double plasmid circuit. The methods described in Example 1 are also applicable to Examples 2, 3, and 4.\n(§1) The iSLC and SLC strains were both cultured in lysogeny broth (LB) media with 50 μg mL^−1 kanamycin, 34 μg mL^−1 chloramphenicol and 0.2% glucose for strains containing ColE1 origin and p15A origin plasmids in a 37° C. shaking incubator. Plasmid pTD103 RpaR-RpaI-LAA-sfGFP^21, ptD103-CFP were constructed by as described in previous studies (see, e.g., FIG. 11). Both plasmids pAM014 and pAM021 were obtained by inserting the 4CL2nt gene under the constitutive promoter J23106 from the Anderson promoter library. The 4CL2nt gene and the promoter were synthesized with overlapping PCR of long oligonucleotides (IDT). All plasmids were constructed by Gibson assembly followed by transformation into DH5α (Thermofisher) chemically competent E. coli. All plasmids were verified by Sanger sequencing before transformation into E. coli strain MG1655.\n(§2) For plate reader experiments, the appropriate strains were seeded from a −80° C. glycerol stock into 3 ml LB with 0.2% glucose and appropriate antibiotics and incubated in a 37° C. shaking incubator. The following day, 2 μL of overnight culture were added to 200 μL fresh media containing appropriate antibiotics in a standard Falcon tissue culture 96-well flat bottom plate. Cells were incubated at 37° C. shaking in a Tecan Infinite M200 Pro. Cells were grown for about 12 hours. The optical density at 600 nm absorbance was measured every 10 minutes."}, "[2]": {"test_system": "wild type E. Coli strain", "assay": "wild type E. Coli growth curves in a range of p-coumaric acid concentrations (plate reader)", "type": "cell-based", "conditions": "within the characterized concentration range; FIG. 1E", "method": "as §2"}, "[3]": {"test_system": "iSLC strain", "assay": "iSLC strain population dynamics in microfluidic inducer gradient device", "type": "cell-based, E. coli", "method": "as §1\nThe microscopy and microfluidics techniques used are similar to those previously reported. The microfluidic devices were constructed from PDMS (polydimethylsiloxane), which was molded and baked on a silicon wafer with micronscale features formed by crosslinked photoresist. Once the PDMS hardened, it was peeled off, and individual devices were cut out. In order to connect fluid lines to the device, holes where punched in correspondence of the inlets and outlets of the device. Afterwards, the devices were bonded onto glass slides using plasma activation. […]"}, "[4]": {"test_system": "iSLC strain", "assay": "iSLC kill switch induction in microfluidic traps", "type": "cell-based, E. coli", "conditions": "induction with 500 nM pCA after saturation of traps; 406 traps", "text": "(§3) The microscopy and microfluidics techniques used are similar to those previously reported. The microfluidic devices were constructed from PDMS (polydimethylsiloxane), which was molded and baked on a silicon wafer with micronscale features formed by crosslinked photoresist. Once the PDMS hardened, it was peeled off, and individual devices were cut out. In order to connect fluid lines to the device, holes where punched in correspondence of the inlets and outlets of the device. Afterwards, the devices were bonded onto glass slides using plasma activation. Before each experiment, the devices were left for 30 minutes in a vacuum chamber. Meanwhile, 1 mL of overnight cell culture was spun down by centrifugation and re-suspended in 10 μL of fresh media with appropriate antibiotics. […] At 4× magnification fluorescence exposure times were 2 seconds at 30% intensity for both gfp and cfp while at 10× magnification they were 200 us at 30% intensity for both GFP and CFP. […]\n(§4) Fluorescence intensity profiles were obtained by analyzing frames from the fluorescent channels. The mean fluorescence values were calculated by drawing a rectangle surrounding each trap individually and extracting the z-axis profile on ImageJ. Fluorescence values shown in FIG. 2 were normalized by dividing all data by a constant factor. […]"}, "[5]": {"test_system": "iSLC strain", "assay": "cells survival assay (CFU count) of iSLC strain in liquid culture", "type": "cell-based, E. coli", "conditions": "3 mL culture tubes, eight hours; 300 nM, 500 nM, 1 μM; independent of inducer concentration; FIG. 3D", "method": "Cell viability assays to test the efficacy of iQS as a kill switch were done by measuring colony forming units (CFUs), following a protocol found in the literature. Cells were grown under survival conditions in LB with 0.2% glucose which inhibits the LuxI promoter thanks to the presence of a binding site for the CAP-CAMP activating complex. Following overnight growth, they were transferred into four cultures of fresh LB medium with 0.2% glucose, 300 nM p-coumaric acid, 500 nM p-coumaric acid and 1 μM p-coumaric acid, respectively. Samples were collected every 2 hours and serially diluted in PBS over a 7-log range and spotted (2 μL) onto LB agar plates with 0.2% glucose. The equations used arc: CFU/ml=(number of colonies)×(dilution factor)/0.002 mL, survival ratio (log 10)=log (CFU/ml with glucose)/(CFU/ml with p-coumaric acid).\nExperiments were performed to investigate whether inducer concentrations could be modulated during culture to show the culture can switch between states of constant growth (circuit quiescence), synchronized oscillations in population density (cyclic cargo release) and inducible population death (kill switch). To confirm this principle, experiments were performed to test the ability to drive the population dynamics from state one (population growth) to state three (population death) through pCA induction (FIG. 3A). […]"}, "[6]": {"test_system": "iSLC and SLC strains co-culture", "assay": "co-culture of iSLC and SLC strains under a gradient of inducer concentrations (microfluidics)", "type": "cell-based, E. coli", "text": "as §3, with “antibiotics. After taking the device out of the vacuum chamber, a single droplet of resuspended cells was positioned in correspondence of the outlet opening. Similarly, droplets of sterile fresh media were placed in correspondence of the inlets openings. In all cases, 0.075% Tween20 was added to the medium to prevent cells from sticking to the PDMS walls. After all chip features were wetted, the fluids lines were plugged in and the height of the inlet was raised 10 to 40 cm above the device. The outlet syringe was instead placed at the same height of the device. For co-culturing experiments in FIG. 4, cells were cultured individually overnight and eventually spun down and re-suspended together (1:1 ratio) allowing for a single droplet to be loaded on the device.” for “antibiotics.”\nas §4"}, "[7]": {"test_system": "lux QS system", "assay": "crosstalk of p-coumaric acid with the lux QS system, growth curves (plate reader)", "type": "cell-based, E. coli", "conditions": "range of pCA concentrations; FIG. 9", "method": "as §2\nExperiments were performed to investigate the orthogonal properties of the iQS circuit by co-culturing the iSLC with a non-inducible SLC strain based on the lux QS system, one of the most commonly used and well understood QS systems in synthetic biology (FIG. 4A). […] Next, a previously described microfluidic chip was used (FIG. 2D and FIG. 7) to co-culture the iSLC and SLC strains (starting at 1:1 ratio) under a gradient of inducer concentrations. […] Without inducer, the quiescent iSLC strain was able to displace the SLC strain due to an advantage in population growth rate. At intermediate concentrations (15 nM), stable co-culture of both strains were maintained with independently sustained oscillations for more than 40 hours."}}, "note": "“Also recorded” adds a separate entry of the source.", "data": [{"compound": "O=C(O)/C=C/c1ccc(O)cc1", "note": "[pCA, p-coumaric acid]", "values": [{"measurement": "iQS circuit behavior at intermediate inducer levels", "setting": "[1]; 1 nM and 10 nM pCA", "result": "population-dependent switch-like behavior"}, {"measurement": "iQS circuit behavior at high inducer concentrations", "setting": "[1]; 100 nM to 10 μM pCA", "result": "linear relationship between fluorescence expression and population density"}, {"measurement": "optical density threshold of steep increase in fluorescence signal", "setting": "[1]; intermediate levels (1 nM and 10 nM) pCA", "result": "around 0.3"}, {"measurement": "toxicity to wild type E. Coli (growth curves)", "setting": "[2]", "result": "not toxic"}, {"measurement": "fraction of all microfluidics traps able to survive", "setting": "[3]; high pCA concentrations 110 nM to 1 μM, universal cell lysis", "result": "< 3", "unit": "%"}, {"measurement": "average period of sustained synchronized oscillations", "setting": "[3]; intermediate inducer concentration 15 nM", "result": "approximately 200 minutes"}, {"measurement": "microfluidic traps with cell death after synchronized lysis event", "setting": "[4]", "result": "more than 97%"}, {"measurement": "cell survival (CFU)", "setting": "[5]", "result": "several order of magnitude decrease"}, {"measurement": "duration of stable co-culture with independently sustained oscillations", "setting": "[6]; 15 nM, starting 1:1 ratio", "result": "more than 40 hours"}, {"measurement": "co-culture outcome at high pCA concentration", "setting": "[6]; 110 nM, starting 1:1 ratio", "result": "death of all iSLC cells"}, {"measurement": "co-culture outcome at inducer values higher than 340 nM", "setting": "[6]; higher than 340 nM, FIG. 10", "result": "iSLC death and SLC takeover"}, {"measurement": "crosstalk with lux QS system / growth curves", "setting": "[7]", "result": "absence of crosstalk; also recorded: growth curves are unaffected"}]}]}
